Source: patent EP0997137B1 (Société des Produits Nestlé S.A., priority 1998, dated 2000)

What was measured:
[1] = test system: TNF-α secretion of keratinocytes which are treated with TPA; test: TNF-α secretion by TPA-treated immortalized human keratinocytes (ELISA of supernatant); assay type: cell-based; details: for % of the control: control: TPA without piperonal
Procedure: These keratinocytes (cf. WO97/23602) are treated in this connection with inflammation-promoting substances, more specifically with a known skin irritant in the form of a phorbol ester (12-O-tetradecanoylphorbol acetate, abbreviated to TPA), and as a response to this treatment they display a typical inflammatory metabolic reaction, in particular an increase in the secretion of the inflammation-promoting cytokine TNF-α (tumour necrosis factor alpha).
A substance which inhibits the secretion of TNF-α in the case of TPA-treated keratinocytes in the above model in a dose-dependent manner is regarded as a potentially anti-inflammatory substance.
(§1) Specifically, the test is carried out by subjecting in vitro human keratinocytes, immortalized in culture, to an inflammation-promoting treatment using the abovementioned 12-O-tetradecanoylphorbol 13-acetate (TPA). The immortalized keratinocyte cell lines used are the cell lines DK2, FK2 or else DK7, which are described in the published International Patent Application WO 97/23602. The cell lines FK2 and DK2 were deposited on 5 October 1995 in accordance with the Budapest Treaty at the DSM depository (Deutsche Sammlung für Mikroorganismen und Zellkulturen GmbH, Mascheroder Weg 1b, D-38124 Braunschweig, Germany) and were given the deposit names DSM ACC2240 and DSM ACC2238. The cell line DK7-NR was deposited on 19 March 1998 at the Pasteur Institute, Paris (CNCM) under the number
I-1996. It is also possible to use an immortalized keratinocyte line HaCaT, which is described by Boukamp et al. in J. Cell. Biol., 106, 761-771, 1988).
Petri dishes (6 cm diameter), which contain 4 ml of the serum-free nutrient medium NR-2 (cf. WO97/23602; Biofluids), were inoculated with the abovementioned immortalized keratinocyte cell lines. As soon as confluence of the cell lawn was observed, the nutrient medium was replaced by a fresh, calcium-enriched nutrient medium NR-2 (1.5 mM CaCl2). The dishes were incubated for 2 days, the nutrient medium was replaced by fresh nutrient medium and the dishes were incubated for a further 2 days. […] In parallel, an identical batch without piperonal additive was prepared.
(§2) During the last 24 h of the above mentioned incubation, TPA in ethanol or a corresponding amount of ethanol was added in an amount of 10 ng/ml. The supernatants were then isolated and, by means of a known ELISA assay (Ruwag AG, Zurich, Switzerland) using specific antibodies to TNF-α (BioSource Inter., US, catalogue numbers KHC0012 and KHC3013), the concentration of TNF-α in the supernatant was determined.

keratinocytes = test: Cytotoxic activity on the keratinocytes; details: concentrations used in the experiments (0.01-0.1%)
[2] = test system: TNF-α secretion of keratinocytes; test: Control experiments without TPA: TNF-α secretion by immortalized human keratinocytes (ELISA of supernatant); assay type: cell-based
Procedure: as §1
Petri dishes (6 cm diameter), which contain 4 ml of the serum-free nutrient medium NR-2 (cf. WO97/23602; Biofluids), were inoculated with the abovementioned immortalized keratinocyte cell lines. As soon as confluence of the cell lawn was observed, the nutrient medium was replaced by a fresh, calcium-enriched nutrient medium NR-2 (1.5 mM CaCl2). The dishes were incubated for 2 days, the nutrient medium was replaced by fresh nutrient medium and the dishes were incubated for a further 2 days.
as §2

[3] = TPA + hydrocortisone (concentration not given)

| Compound | Amount of TNF-α determined ([1]; TPA 10 ng/ml + hydrocortisone (concentration not given)) | % inhibition [1, 3] | % of the control [1, 3] | cytotoxic activity (keratinocytes) | Amount of TNF-α determined ([2]; No TPA + 0.01% of piperonal) | Amount of TNF-α determined ([2]; No TPA + 0.05% of piperonal) | Amount of TNF-α determined ([2]; No TPA + 0.1% of piperonal) | Amount of TNF-α determined ([1]; TPA 10 ng/ml + 0.01% of piperonal) | Amount of TNF-α determined ([1]; TPA 10 ng/ml + 0.05% of piperonal) | Amount of TNF-α determined ([1]; TPA 10 ng/ml + 0.1% of piperonal) | % of the control ([1]; TPA + 0.01% of piperonal) | % inhibition ([1]; TPA + 0.05% of piperonal) | % of the control ([1]; TPA + 0.05% of piperonal) | % inhibition ([1]; TPA + 0.1% of piperonal) | % of the control ([1]; TPA + 0.1% of piperonal) |
| --- | --- | --- | --- | --- | --- | --- | --- | --- | --- | --- | --- | --- | --- | --- | --- |
| C[C@]12CCC(=O)C=C1CC[C@@H]1[C@@H]2[C@@H](O)C[C@@]2(C)[C@H]1CC[C@]2(O)C(=O)CO [hydrocortisone, reference compound] | 220.4 pg/mL | 26.4% | 73.6% | – | – | – | – | – | – | – | – | – | – | – | – |
| O=Cc1ccc2c(c1)OCO2 [piperonal, 3,4-(methylenedioxy)benzaldehyde] | – | – | – | does not exhibit cytotoxic activity | 7.9 pg/mL | 8.9 pg/mL | 6.3 pg/mL | 331.2 pg/mL | 78.1 pg/mL | 100.6 pg/mL | 110.6% | 73.9% | 26.1% | 66.4% | 33.6% |
